Data set [1] relates to PC3 cells. Nature of the data set: MTS cell viability assay, PC3. Type of data set: cell-based, human. To be noted: 72 h. The protocol: 3-(4,5-dimethylthiazol-2-yl)-5-(3-carboxymethoxyp henyl)-2-(4-sulfophenyl)-2H-tetrazolium, inner salt (MTS). Cells were seeded at a density of 3000 cells per well (except VCaP at 20,000/well) in 100 μL of appropriate media in 96 well culture dishes. Twenty four hours later, 100 μL of medium containing vehicle control or compounds. Each treatment was prepared in triplicate. After a 72 h treatment, cellular viability was assessed using CellTiter 96 ® Aqueous One Solution Cell Proliferation Assay reagent (Promega) according to the manufacturer's instructions. Values were normalized to the DMSO control.
On the technique in general: Tetrazolium assays rely on reduction of a dye to a coloured formazan, in cell work by metabolically active cells.

In data set [2] the target is T1, ERG (Homo sapiens, UniProt P11308).
T1 construct: VCaP (endogenous overexpression); endogenous in cells; host or cells: VCaP (whole cells for A2 and A17; nuclear extract for A16)
T1 sequence (P11308 33-479 limits assumed): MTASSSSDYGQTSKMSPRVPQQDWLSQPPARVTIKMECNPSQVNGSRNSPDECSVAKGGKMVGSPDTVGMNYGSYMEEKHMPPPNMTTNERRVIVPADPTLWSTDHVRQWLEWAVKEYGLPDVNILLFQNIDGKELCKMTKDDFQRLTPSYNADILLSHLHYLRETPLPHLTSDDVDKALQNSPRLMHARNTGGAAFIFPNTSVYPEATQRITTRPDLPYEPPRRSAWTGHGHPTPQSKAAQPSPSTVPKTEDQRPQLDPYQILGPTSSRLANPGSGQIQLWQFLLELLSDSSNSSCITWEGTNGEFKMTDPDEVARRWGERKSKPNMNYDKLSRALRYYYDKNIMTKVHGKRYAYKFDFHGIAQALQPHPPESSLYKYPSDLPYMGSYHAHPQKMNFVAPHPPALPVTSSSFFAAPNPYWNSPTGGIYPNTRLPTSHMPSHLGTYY
Description: Dual reporter luciferase assay (pETS-luc) in VCaP cells. Type of data set: cell-based. Particulars: 0.1-100 μM, 48 h treatment. The protocol:
(§1) All of the compounds selected from the virtual screening were tested in a luciferase-based ERG-responsive reporter assay, using two ERG-overexpressing cell lines, VCaP and PNT1B-ERG, previously developed in house. […] Data were normalized first to Renilla luciferase and then to the DMSO-media control on each plate, unless otherwise stated. Initial hit compounds were identified as those with an average normalized luciferase reading (firefly luciferase/Renilla luciferase readings) that is 60% or less of the average normalized luciferase reading of the DMSO-media control (i.e. 40% or more reduction of luciferase activity) at 10 μM. Representative example of raw Renilla luciferase readings presented in Supplementary Figure 9B. The luciferase assays were repeated for each lead compound under multiple concentrations (0.1 to 100 μM) to establish a dose-dependent response and an IC50 value. AR reporter assay was performed as previously described.

Data set [3] concerns the target T2, ERG (Homo sapiens, UniProt P11308).
T2 construct: expressed in transfected cells; host or cells: PNT1B-ERG (immortalized prostatic epithelial PNT1B cells stably overexpressing ERG)
T2 sequence (P11308 1-479): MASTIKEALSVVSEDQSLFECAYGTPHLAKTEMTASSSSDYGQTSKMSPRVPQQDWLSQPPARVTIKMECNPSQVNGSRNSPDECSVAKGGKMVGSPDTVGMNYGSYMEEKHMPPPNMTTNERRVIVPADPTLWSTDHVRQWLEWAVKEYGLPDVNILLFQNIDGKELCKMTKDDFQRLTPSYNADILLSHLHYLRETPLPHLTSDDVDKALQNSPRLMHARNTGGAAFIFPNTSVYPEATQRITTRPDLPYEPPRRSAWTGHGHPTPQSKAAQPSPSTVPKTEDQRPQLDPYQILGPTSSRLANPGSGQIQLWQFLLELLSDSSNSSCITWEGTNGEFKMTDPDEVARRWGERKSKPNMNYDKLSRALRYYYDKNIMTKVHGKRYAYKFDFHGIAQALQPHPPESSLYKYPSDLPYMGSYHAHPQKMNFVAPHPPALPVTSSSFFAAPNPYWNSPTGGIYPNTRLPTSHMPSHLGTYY
Nature of the data set: Dual reporter luciferase assay (pETS-luc) in PNT1B-ERG cells. Type of data set: cell-based. To be noted: 0.1-100 μM, 48 h treatment. The protocol:
as §1

The target in data set [4] is T3, ERG-ETS/DNA complex (Homo sapiens, UniProt P11308).
T3 construct: A pET28a plasmid encoding residues 307–400 of the ERG-ETS domain; His6 (cleaved yes); made in house; host or cells: E. coli BL21 (λDE3)
T3 sequence (P11308 307-400): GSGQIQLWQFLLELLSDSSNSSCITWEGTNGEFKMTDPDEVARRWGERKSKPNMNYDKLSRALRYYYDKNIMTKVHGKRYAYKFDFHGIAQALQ
Nature of the data set: EMSA competition, purified ERG-ETS domain and dsDNA. It is filed as binding. Particulars: for Disruption of recombinant ERG-ETS/DNA complex formation: up to 8 mM. The protocol: To prepare the probe for the gel shift assay, equal amounts (200 nM) of Alexa-488 fluorophore-labeled DNAs ([NT] and its complement) were mixed, heated to 95°C for 30 minutes, and then slowly cooled to 25°C in several hours. […] The gel was scanned with Typhoon 9200 Imager equipped with blue laser to excite at 490 nm and fluorescence was measured at 520 nm. The scanned image was analyzed with Image J [48]. […] The result of this initial study was used to set the molar ratio of ERG-ETS domain:DNA in subsequent competition assays with VPC-18005. […] The data were fit to the equation for competitive binding, fb,i = [ERG]/([ERG] + KD{1 + [VPC-18005]i/KI}), where KI is the inhibitor dissociation constant and the fraction bound, fb,i, was calculated the intensity of the bound DNA band at each titration point relative to that without added VPC-18005. A control experiment was carried out by titrating with equivalent quantities of DMSO.
(In general: Mobility shift assays separate free from complexed probe on a gel.)

Data set [5] relates to PNT1B-ERG spheroids. Description: 3D spheroid invasion assay. Type of data set: cell-based, human. Particulars: compared to vehicle control. The protocol:
3D Spheroid BME Cell Invasion Assay (Trevigen) was performed as per manufacturer's instructions. […] Spheroids were then incubated at 37°C for 3 to 7 days, and photographed using Zeiss AxioObserver Z1 microscope in each well on the day of invasion mix addition and every two days following. Spheroids were retreated with 50 μL of vehicle control or compound after 72 hr.

The subject of data set [6] is VCaP cells.
Description: (media), and phosphate buffered saline (PBS) and vortex Cells were detached by treatment with Accutase
The (Gibco), then underwent APC BrdU Flow Kit protocol
Cells were analysed on a FACSCanto™
Saturated PBS samples were further software (TreeStar, USA). […] Aliquots of these analysed statistically by Two-Way ANOVA.

By IC50 is commonly meant the concentration that gives 50% inhibition.

Molecules are shown by their SMILES.

For `CC(C)c1ccc(C=N/N=C2\NC(=O)[C@@H](CC(=O)O)S2)cc1` (stereo in doubt) [VPC-18005, 2-((Z)-2-(((Z)-4-isopropylbenzylidene)hydrazono)-4-oxothiazolidin-5-yl)acetic acid], in data set [1] (0.2–25 μM), the “Effect on cell viability (MTS), PC3” value was “did not decrease viability”. Besides, the values for the IC50 in data set [2] and in data set [3] were 6 µM and 3 µM, respectively. In addition, the Ki in data set [4] (4 nM ERG-ETS domain, 1 nM dsDNA, read-out: KI, disruption of ERG-ETS/DNA complex formation) was ~250 µM. Further, the “Disruption of recombinant ERG-ETS/DNA complex formation” value in data set [4] was “dose-dependent disruption”. In data set [5], the “Rate of spheroid invasion between day 2 and 6” value is reported as “significantly reduced”. For the same molecule, the “Impact on cell cycle distribution” value in data set [6] is reported as “did not impact cell cycle distribution”.
On to `COc1ccc(C(=O)CC2(O)C(=O)Nc3c(Cl)ccc(Cl)c32)cc1` (stereo not shown) [YK-4-279, reference compound], for which the “Doses with inhibition of cell viability (MTS), PC3” value in data set [1] is ≥ 5 µM. In addition, the IC50 in data set [2] stood at 16 µM; in data set [3], 5 µM. For the same molecule, the “Disruption of recombinant ERG-ETS/DNA complex formation” value in data set [4] was “did not disrupt binding”. In addition, the “Rate of spheroid invasion between day 2 and 6” value in data set [5] is “significantly reduced”. The “G0–G1 phase population” value in data set [6] (5 and 10 μM) is “concomitantly reduced”.
